Target: D(3) dopamine receptor (Rattus norvegicus, UniProt P19020)
Experiment: Binding affinity towards rat Dopamine receptor D3 in Sf9 cells expressing in recombinant baculovirus (Bv) using [125I]IABN as radioligand

Sequence of D(3) dopamine receptor (Rattus norvegicus, UniProt P19020) (P19020 whole entry): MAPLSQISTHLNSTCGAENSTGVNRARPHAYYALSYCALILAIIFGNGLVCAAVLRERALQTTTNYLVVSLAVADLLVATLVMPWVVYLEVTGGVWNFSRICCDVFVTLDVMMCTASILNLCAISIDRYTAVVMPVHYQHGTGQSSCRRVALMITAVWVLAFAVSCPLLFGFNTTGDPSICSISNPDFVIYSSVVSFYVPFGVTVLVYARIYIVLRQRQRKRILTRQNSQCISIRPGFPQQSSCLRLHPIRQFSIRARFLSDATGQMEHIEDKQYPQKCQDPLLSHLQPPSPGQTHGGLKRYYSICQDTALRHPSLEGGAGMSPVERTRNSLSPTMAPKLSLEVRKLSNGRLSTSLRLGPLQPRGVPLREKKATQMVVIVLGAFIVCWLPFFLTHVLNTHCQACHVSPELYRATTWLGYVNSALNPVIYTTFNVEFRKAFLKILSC

Row | Structure (SMILES) | Ki [nM]
1 | O=C(NCCCCN1CCN(c2cccc(Cl)c2Cl)CC1)c1cnc2ccccc2n1 | 1.9
2 | O=C(NCCCCN1CCN(c2cccc(Cl)c2Cl)CC1)c1ccc2c(c1)Cc1ccccc1-2 | 1.1
3 | O=C(NCCCCN1CCN(c2cccc(Cl)c2Cl)CC1)c1cccc2c1-c1ccccc1C2=O | 1.6
4 | O=C(NCCCCN1CCN(c2cccc(Cl)c2Cl)CC1)c1ccc(I)cc1 | 1.4
5 | O=C(NCCCN1CCN(c2ccccc2)CC1)C1c2ccccc2-c2ccccc21 | 84.5
6 | O=C(NC/C=C/CN1CCN(c2cccc(Cl)c2Cl)CC1)c1ccc2c(c1)Cc1ccccc1-2 | 5.9
7 | O=C(NC/C=C\CN1CCN(c2cccc(Cl)c2Cl)CC1)c1ccc2c(c1)Cc1ccccc1-2 | 6
8 | O=C(NC/C=C\CN1CCN(c2cccc(Cl)c2Cl)CC1)c1cccc2c1-c1ccccc1C2 | 6.5
9 | O=C(NCCCCN1CCN(c2cccc(Cl)c2Cl)CC1)c1cccc2c1-c1ccccc1C2 | 4.5
10 | O=C1c2ccccc2C(=O)N1CCCCCN1CCN(c2cccc(Cl)c2Cl)CC1 | 5.6
11 | O=C(NCCCCN1CCN(c2cccc(Cl)c2Cl)CC1)C1c2ccccc2-c2ccccc21 | 11.1
12 | O=C(NCCCN1CCN(c2cccc(Cl)c2Cl)CC1)c1cccc2c1-c1ccccc1C2=O | 43
13 | O=C(NCCCN1CCN(c2cccc(Cl)c2Cl)CC1)c1ccc2c(c1)Cc1ccccc1-2 | 199
14 | O=C(NCCCCCN1CCN(c2cccc(Cl)c2Cl)CC1)c1cccc2c1-c1ccccc1C2=O | 2
15 | O=C(NCCCCN1CCN(c2cccc(Cl)c2Cl)CC1)c1cc2cc(F)ccc2[nH]1 | 2.6
16 | O=C(NCCCN1CCN(c2cccc(Cl)c2Cl)CC1)C1c2ccccc2-c2ccccc21 | 34
17 | O=C(NCCCCN1CCN(c2cccc(Cl)c2Cl)CC1)c1ccc(-c2ccccn2)cc1 | 0.6
18 | O=C(NC/C=C/CN1CCN(c2cccc(Cl)c2Cl)CC1)c1cccc2c1-c1ccccc1C2 | 19
19 | O=C1c2ccccc2C(=O)N1CCCCN1CCN(c2cccc(Cl)c2Cl)CC1 | 4.8
20 | O=C(NCCCN1CCN(c2cccc(Cl)c2Cl)CC1)c1cccc2c1-c1ccccc1C2 | 139
21 | O=C(NC/C=C/CN1CCN(c2cccc(Cl)c2Cl)CC1)c1ccccc1 | 1.3
22 | O=C(NCC#CCN1CCN(c2cccc(Cl)c2Cl)CC1)c1ccc2c(c1)Cc1ccccc1-2 | 214
23 | O=C(NCC#CCN1CCN(c2cccc(Cl)c2Cl)CC1)c1cccc2c1-c1ccccc1C2 | 1080
24 | Nc1ccc2c(c1)-c1c(cccc1C(=O)NCCCCN1CCN(c3cccc(Cl)c3Cl)CC1)C2 | 3.5
25 | O=C(NCC#CCN1CCN(c2cccc(Cl)c2Cl)CC1)c1ccccc1 | 394
26 | O=C(NC/C=C\CN1CCN(c2cccc(Cl)c2Cl)CC1)c1ccccc1 | 4.9

Target: D(3) dopamine receptor (Homo sapiens, UniProt P35462)
Sequence (P35462 whole entry): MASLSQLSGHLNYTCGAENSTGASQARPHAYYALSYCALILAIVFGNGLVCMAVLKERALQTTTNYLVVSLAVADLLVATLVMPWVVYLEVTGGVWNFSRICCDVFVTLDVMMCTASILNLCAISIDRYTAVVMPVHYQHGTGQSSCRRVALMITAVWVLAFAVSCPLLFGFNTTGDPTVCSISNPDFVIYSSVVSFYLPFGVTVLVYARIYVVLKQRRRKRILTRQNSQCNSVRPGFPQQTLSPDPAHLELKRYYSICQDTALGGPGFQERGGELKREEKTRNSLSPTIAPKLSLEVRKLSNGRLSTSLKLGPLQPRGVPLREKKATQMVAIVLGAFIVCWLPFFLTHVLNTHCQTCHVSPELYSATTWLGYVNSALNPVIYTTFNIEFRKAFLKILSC
Experiment: not given

Row | Structure (SMILES) | IC50 [nM]
27 | O=C(NCCCCN1CCN(c2cccc(Cl)c2Cl)CC1)c1cnc2ccccc2n1 | 26.9

Target: D(2) dopamine receptor (Rattus norvegicus, UniProt P61169)
Sequence (P61169 whole entry): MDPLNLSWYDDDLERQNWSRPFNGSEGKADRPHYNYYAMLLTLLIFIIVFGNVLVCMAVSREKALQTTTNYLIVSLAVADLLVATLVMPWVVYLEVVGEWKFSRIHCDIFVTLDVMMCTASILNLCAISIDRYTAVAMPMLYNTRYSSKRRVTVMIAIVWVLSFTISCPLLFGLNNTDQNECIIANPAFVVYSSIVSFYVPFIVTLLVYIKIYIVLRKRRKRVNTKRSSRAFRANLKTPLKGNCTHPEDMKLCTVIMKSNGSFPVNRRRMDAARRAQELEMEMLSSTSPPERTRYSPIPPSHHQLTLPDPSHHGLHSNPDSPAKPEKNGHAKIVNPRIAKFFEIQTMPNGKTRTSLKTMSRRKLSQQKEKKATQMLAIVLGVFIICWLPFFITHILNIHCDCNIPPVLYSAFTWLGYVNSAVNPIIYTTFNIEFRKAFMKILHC
Experiment: biochemical

Row | Structure (SMILES) | Ki [nM]
28 | O=C(NCCCCN1CCN(c2cccc(Cl)c2Cl)CC1)c1cnc2ccccc2n1 | 109
29 | O=C(NCCCCN1CCN(c2cccc(Cl)c2Cl)CC1)c1ccc2c(c1)Cc1ccccc1-2 | 911
30 | O=C(NCCCCN1CCN(c2cccc(Cl)c2Cl)CC1)c1cccc2c1-c1ccccc1C2=O | 150
31 | O=C(NCCCCN1CCN(c2cccc(Cl)c2Cl)CC1)c1ccc(I)cc1 | 87.5
32 | O=C(NCCCN1CCN(c2ccccc2)CC1)C1c2ccccc2-c2ccccc21 | 1020
33 | O=C(NC/C=C/CN1CCN(c2cccc(Cl)c2Cl)CC1)c1ccc2c(c1)Cc1ccccc1-2 | 198
34 | O=C(NC/C=C\CN1CCN(c2cccc(Cl)c2Cl)CC1)c1ccc2c(c1)Cc1ccccc1-2 | 87.3
35 | O=C(NC/C=C\CN1CCN(c2cccc(Cl)c2Cl)CC1)c1cccc2c1-c1ccccc1C2 | 10.7
36 | O=C(NCCCCN1CCN(c2cccc(Cl)c2Cl)CC1)c1cccc2c1-c1ccccc1C2 | 134
37 | O=C1c2ccccc2C(=O)N1CCCCCN1CCN(c2cccc(Cl)c2Cl)CC1 | 86.4
38 | O=C(NCCCCN1CCN(c2cccc(Cl)c2Cl)CC1)C1c2ccccc2-c2ccccc21 | 55.2
39 | O=C(NCCCN1CCN(c2cccc(Cl)c2Cl)CC1)c1cccc2c1-c1ccccc1C2=O | 153
40 | O=C(NCCCN1CCN(c2cccc(Cl)c2Cl)CC1)c1ccc2c(c1)Cc1ccccc1-2 | 396
41 | O=C(NCCCCCN1CCN(c2cccc(Cl)c2Cl)CC1)c1cccc2c1-c1ccccc1C2=O | 35.3
42 | O=C(NCCCN1CCN(c2cccc(Cl)c2Cl)CC1)C1c2ccccc2-c2ccccc21 | 250
43 | O=C(NCCCCN1CCN(c2cccc(Cl)c2Cl)CC1)c1ccc(-c2ccccn2)cc1 | 57.9
44 | O=C(NC/C=C/CN1CCN(c2cccc(Cl)c2Cl)CC1)c1cccc2c1-c1ccccc1C2 | 106
45 | O=C1c2ccccc2C(=O)N1CCCCN1CCN(c2cccc(Cl)c2Cl)CC1 | 102
46 | O=C(NCCCN1CCN(c2cccc(Cl)c2Cl)CC1)c1cccc2c1-c1ccccc1C2 | 376
47 | O=C(NC/C=C/CN1CCN(c2cccc(Cl)c2Cl)CC1)c1ccccc1 | 50.1
48 | O=C(NCC#CCN1CCN(c2cccc(Cl)c2Cl)CC1)c1ccc2c(c1)Cc1ccccc1-2 | 1000
49 | O=C(NCC#CCN1CCN(c2cccc(Cl)c2Cl)CC1)c1cccc2c1-c1ccccc1C2 | 891
50 | Nc1ccc2c(c1)-c1c(cccc1C(=O)NCCCCN1CCN(c3cccc(Cl)c3Cl)CC1)C2 | 79.3
51 | O=C(NCC#CCN1CCN(c2cccc(Cl)c2Cl)CC1)c1ccccc1 | 1700
52 | O=C(NC/C=C\CN1CCN(c2cccc(Cl)c2Cl)CC1)c1ccccc1 | 20

Source: ChEMBL document CHEMBL1136084, “N-(4-[4-(2,3-dichlorophenyl)piperazin-1-yl]butyl, butenyl and butynyl)arylcarboxamides as novel dopamine D(3) receptor antagonists” (Bioorg Med Chem Lett, 2003)
